From US7829063B2, “Development of molecular imaging probes for carbonic anhydrase-IX using click chemistry” (Siemens Medical Solutions USA, Inc., priority 2007, dated 2010) come the findings set out here.

Structures are written as SMILES.

The first experiment has as its target T1, CA-IX (Homo sapiens, UniProt Q16790).
T1 construct: His tag (C); purchased R&D Systems Inc. 2188-CA; host or cells: mouse myeloma cell line NS0
Description: CA-IX combinatorial library screening, competitive fluorescence-based assay with dansylamide (DNSA). The class given is binding. The note with it: 1 h; Table 1, Libraries 1-3; sample concentrations 100 nM and 1000 nM, DNSA 200 μM; screening at 1 μM; read-out: In Vitro Binding Assay (Library Screening). Here is the method:
General. CA-IX human recombinant enzyme was expressed with a C-terminal His tag in a mouse myeloma cell line, NS0 (R&D Systems Inc., catalog number 2188-CA). The human red blood cells were obtained from Research Blood Components, LLC. All absorbance measurements were performed on a SPECTRA MAX M2 plate reader at 25° C. The LC/MS analyses were performed on an Agilent 1100 series LC/MSD (SL) using a 30×2.1 mm Zorbax C8 column with a Phenomenex C18 pre-column. Compound detection was accomplished by electrospray mass spectroscopy in positive selected ion mode (LC/MS-SIM). The elution solvents were acetonitrile and water, contained 0.05% TFA. Nuclear magnetic resonance (NMR) spectra were obtained on a Bruker AMX 300 MHz spectrometer or a Varian 400. 19F NMR spectra were recorded on a Bruker AMX 282.35 MHz or a Varian 400 spectrometer. The mass spectra were recorded on an Agilent 1100 series LC/MSD with electrospray mass spectroscopic detection. Flash column chromatography was performed on Merck silica gel (40-63 μm) using the solvent system indicated. The radiochemical and chemical purities were analyzed by RP-HPLC.
General Combinatorial Library Screening Protocol for CA-IX
The CA-IX screening assay was employed for testing libraries derived from the various “anchor” molecules, using ethoxzolamide as a positive control. The assay was performed at a substrate (dansylamide, DNSA) concentration of 200 μM, and sample concentrations of 100 nM and 1000 nM, respectively. A modified competitive fluorescence-based assay (A. Jain, S. G. Huang, G. M. Whitesides, J. Am. Chem. Soc. 1994, 116, 5057) was used to measure CA-IX activity. The enzymatic assay was carried out in a 96-well plate. To the wells, deionized water, 40 μL of phosphate buffer (250 mM, pH 7.4), 2.4 μL of CA-IX (17 μM), and 2 μL or 20 μL of inhibitor (concentration of 100 nM or 1000 nM) were added to achieve a final volume of 180 μL. Reactions were initiated by adding 20 μL DNSA (200 μM) to each well and the plate was incubated at 25° C. for 1 hour. The fluorescence intensities from each well of the plate were then read at 460 nm using a plate reader with an excitation wavelength of 290 nm.
For `CCCCCC[C@H](O)[C@@H](O)c1ccc(Cn2cc(CNC(=O)c3ccc(S(N)(=O)=O)cc3)nn2)cc1` [DHK85], the inhibition at 1 µM is under 40%.

With `NS(=O)(=O)c1nc2ccc(OCc3cn(CCN4CCOCC4)nn3)cc2s1` [DHK114], the inhibition at 1 µM was under 40%.

Consider `CC(C)C[C@@H](C(=O)NCc1ccccc1)n1cc(-c2ccc(S(N)(=O)=O)cc2)nn1` [DHK12], for which the inhibition at 1 µM was under 40%.

For the compound `NS(=O)(=O)c1ccc(-c2cn(CCN3CCOCC3)nn2)cc1` [DHK5], the inhibition at 1 µM was under 40%.

As to `NS(=O)(=O)c1ccc(-c2cn(CC(=O)NC(Cc3cnc[nH]3)C(=O)O)nn2)cc1` (stereo not drawn) [DHK106], the inhibition at 1 µM is under 40%.

For `C=CC1C[N@@]2CCC1CC2[C@@H](c1ccnc2ccc(OC)cc12)n1cc(CNC(=O)c2ccc(S(N)(=O)=O)cc2)nn1` (stereo partly drawn) [DHK87], the inhibition at 1 µM is under 40%.

`NS(=O)(=O)c1ccc(-c2cn(Cc3cccc(Br)c3)nn2)cc1` [DHK18]: the inhibition at 1 µM is under 40%.

For `CCCCCC[C@@H](O)[C@@H](O)c1ccc(Cn2cc(COc3ccc4nc(S(N)(=O)=O)sc4c3)nn2)cc1` [DHK135], the inhibition at 1 µM is under 40%.

On to `Cc1ccc(CNC(=O)C(C(C)C)n2cc(CNC(=O)c3ccc(S(N)(=O)=O)cc3)nn2)cc1F` (stereo not drawn) [DHK49], for which the inhibition at 1 µM is under 40%.

With `NS(=O)(=O)c1ccc(-c2cn(-c3cccc(C(=O)NN4CCOCC4)c3)nn2)cc1` [DHK104], the inhibition at 1 µM is under 40%.

For `NS(=O)(=O)c1ccc(-c2cn(-c3ccnc4cc(Cl)ccc34)nn2)cc1` [DHK71], the inhibition at 1 µM was under 40%.

Turning to `CC1CCCN(C(=O)C(C(C)C)n2cc(-c3ccc(S(N)(=O)=O)cc3)nn2)C1` (stereo not drawn) [DHK15], the inhibition at 1 µM is under 40%.

On to `NS(=O)(=O)c1nc2ccc(OCc3cn(C4CCN(C(=O)/C=C/c5ccccc5)CC4)nn3)cc2s1` [DHK144], for which the inhibition at 1 µM was under 40%.

With `CCCOC(=O)c1ccc(NC(=O)Cn2cc(COc3ccc4nc(S(N)(=O)=O)sc4c3)nn2)cc1` [DHK130], the inhibition at 1 µM was under 40%.

Turning to `COc1ccc2nc3cc(Cl)ccc3c(NCCCn3cc(-c4ccc(S(N)(=O)=O)cc4)nn3)c2c1` [DHK24], the inhibition at 1 µM was under 40%.

`NS(=O)(=O)c1ccc(C(=O)NCc2cn(CCCCCCO)nn2)cc1` [DHK88]: the inhibition at 1 µM was under 40%.

As to `NS(=O)(=O)c1ccc(C(=O)NCc2cn(Cn3c(=S)sc4ccccc43)nn2)cc1` [DHK48], the inhibition at 1 µM is under 40%.

In the case of `CC(C)C(C(=O)NCCc1ccsc1)n1cc(-c2ccc(S(N)(=O)=O)cc2)nn1` (stereo not drawn) [DHK76], the inhibition at 1 µM is under 40%.

As to `CC(C)[C@@H](C(=O)NC1CCCCC1)n1cc(CNC(=O)c2ccc(S(N)(=O)=O)cc2)nn1` [DHK50], the inhibition at 1 µM was under 40%.

As for `CC(C)[C@@H](C(=O)NCc1ccccc1)n1cc(COc2ccc3nc(S(N)(=O)=O)sc3c2)nn1` [DHK126], the inhibition at 1 µM was under 40%.

Take `CC(C)C[C@@H](C(=O)NCc1ccccc1)n1cc(COc2ccc3nc(S(N)(=O)=O)sc3c2)nn1` [DIIK118]: the inhibition at 1 µM is under 40%.

For `NS(=O)(=O)c1ccc(-c2cn(C3C(O)C(O)OC3C(O)CO)nn2)cc1` (stereo not drawn) [DHK111], the inhibition at 1 µM was under 40%.

With `NS(=O)(=O)c1ccc(C(=O)NCc2cn(CCn3c(=O)[nH]c4ccccc4c3=O)nn2)cc1` [DHK93], the inhibition at 1 µM was under 40%.

Regarding `Cc1ccnc(NC(=O)[C@H](Cc2ccccc2)n2cc(COc3ccc4nc(S(N)(=O)=O)sc4c3)nn2)c1` [DHK115], the inhibition at 1 µM was under 40%.

On to `CC(CN(C)C)Cn1cc(-c2ccc(S(N)(=O)=O)cc2)nn1` (stereo not drawn) [DHK14], for which the inhibition at 1 µM is under 40%.

The experiment is the same for the next values; noted with them: 1 h; Table 2, Libraries 4-7; sample concentrations 100 nM and 1000 nM, DNSA 200 μM; screening at 1 μM; read-out: In Vitro Binding Assay (Library (Screening)).
In the case of `CN(C)Cc1ccc(CSCCNC(=O)[C@H](Cc2ccccc2)n2cc(-c3ccc(S(N)(=O)=O)cc3)nn2)o1` [DHK-2-3], the inhibition at 1 µM was under 40%.

In the case of `COC(=O)[C@H](C)NC(=O)[C@H](Cc1ccccc1)n1cc(-c2ccc(S(N)(=O)=O)cc2)nn1` [DHK-2-10], the inhibition at 1 µM is under 40%.

Regarding `CC(C)[C@@H](C(=O)N1CCC(N2CCCC2)CC1)n1cc(-c2ccc(S(N)(=O)=O)cc2)nn1` [DHK188], the inhibition at 1 µM was under 40%.

Consider `CC(C)[C@@H](C(=O)N1CCN(c2ccccn2)CC1)n1cc(-c2ccc(S(N)(=O)=O)cc2)nn1` [DHK174], for which the inhibition at 1 µM was under 40%.

On to `CC(C)[C@@H](C(=O)NCCSCc1ccc(CN(C)C)o1)n1cc(COc2ccc3nc(S(N)(=O)=O)sc3c2)nn1` [DHK-2-27], for which the inhibition at 1 µM was under 40%.

For the compound `CCOC(=O)CCN(Cc1ccco1)C(=O)[C@H](C(C)C)n1cc(-c2ccc(S(N)(=O)=O)cc2)nn1` [DHK183], the inhibition at 1 µM was under 40%.

For the compound `CC(C)[C@@H](C(=O)NCc1ccc(F)cc1)n1cc(-c2ccc(S(N)(=O)=O)cc2)nn1` [DHK165], the inhibition at 1 µM was under 40%.

Consider `CC(C)[C@@H](C(=O)NCc1ccc(F)cc1)n1cc(COc2ccc3nc(S(N)(=O)=O)sc3c2)nn1` [DHK-2-25], for which the inhibition at 1 µM is under 40%.

On to `CCOC(=O)CCN(Cc1ccco1)C(=O)[C@H](Cc1ccccc1)n1cc(-c2ccc(S(N)(=O)=O)cc2)nn1` [DHK-2-16], for which the inhibition at 1 µM is under 40%.

With `NS(=O)(=O)c1nc2ccc(OCc3cn([C@@H](Cc4ccccc4)C(=O)NCc4ccc(F)cc4)nn3)cc2s1` [DHK-2-52], the inhibition at 1 µM is under 40%.

Take `Cc1onc(-c2ccccc2)c1CNC(=O)[C@H](Cc1ccccc1)n1cc(-c2ccc(S(N)(=O)=O)cc2)nn1` [DHK-2-15]: the inhibition at 1 µM is under 40%.

As to `NS(=O)(=O)c1ccc(-c2cn([C@@H](Cc3ccccc3)C(=O)NCc3ccc(F)cc3)nn2)cc1` [DHK-2-1], the inhibition at 1 µM is under 40%.

Take `CC(C)[C@@H](C(=O)N1CCC[C@@H]1CO)n1cc(COc2ccc3nc(S(N)(=O)=O)sc3c2)nn1` [DHK-2-30]: the inhibition at 1 µM was under 40%.

As for `NS(=O)(=O)c1nc2ccc(OCc3cn([C@@H](Cc4ccccc4)C(=O)NCC4CC4)nn3)cc2s1` [DHK-2-64], the inhibition at 1 µM is under 40%.

For `CC(C)[C@@H](C(=O)N1CCC(N2CCCC2)CC1)n1cc(COc2ccc3nc(S(N)(=O)=O)sc3c2)nn1` [DHK-2-45], the inhibition at 1 µM was under 40%.

For `CCOC(=O)[C@@H](Cc1ccccc1)NC(=O)[C@H](Cc1ccccc1)n1cc(-c2ccc(S(N)(=O)=O)cc2)nn1` [DHK-2-8], the inhibition at 1 µM was under 40%.

For the compound `CC(C)[C@@H](C(=O)NCC1CC1)n1cc(COc2ccc3nc(S(N)(=O)=O)sc3c2)nn1` [DHK-2-37], the inhibition at 1 µM was under 40%.

Turning to `Cc1onc(-c2ccccc2)c1CNC(=O)[C@H](C(C)C)n1cc(-c2ccc(S(N)(=O)=O)cc2)nn1` [DHK182], the inhibition at 1 µM was under 40%.

With `CC(C)[C@@H](C(=O)NC1CCCCC1)n1cc(-c2ccc(S(N)(=O)=O)cc2)nn1` [DHK179], the inhibition at 1 µM was under 40%.

Consider `COC(=O)C(NC(=O)[C@H](Cc1ccccc1)n1cc(COc2ccc3nc(S(N)(=O)=O)sc3c2)nn1)C(C)C` (stereo partly drawn) [DHK-2-60], for which the inhibition at 1 µM is under 40%.

`NS(=O)(=O)c1ccc(-c2cn([C@@H](Cc3ccccc3)C(=O)NCc3ccc(-c4ccccn4)s3)nn2)cc1` [DHK-2-5]: the inhibition at 1 µM is under 40%.

Turning to `NS(=O)(=O)c1nc2ccc(OCc3cn([C@@H](Cc4ccccc4)C(=O)N4CCN(c5ncccn5)CC4)nn3)cc2s1` [DHK-2-55], the inhibition at 1 µM is under 40%.

For the compound `CCOC(=O)[C@@H](NC(=O)[C@H](Cc1ccccc1)n1cc(-c2ccc(S(N)(=O)=O)cc2)nn1)C(C)C` [DHK-2-9], the inhibition at 1 µM is under 40%.

In the case of `Cn1c(CNC(=O)[C@H](Cc2ccccc2)n2cc(-c3ccc(S(N)(=O)=O)cc3)nn2)nc2ccccc21` [DHK-2-22], the inhibition at 1 µM was under 40%.

`CC(C)[C@@H](C(=O)NCCN1CCN(Cc2ccccc2)CC1)n1cc(COc2ccc3nc(S(N)(=O)=O)sc3c2)nn1` [DHK-2-47]: the inhibition at 1 µM was under 40%.

With `NS(=O)(=O)c1ccc(-c2cn([C@@H](Cc3ccccc3)C(=O)NC3c4ccccc4C[C@@H]3O)nn2)cc1` (stereo partly drawn) [DHK-2-19], the inhibition at 1 µM is under 40%.

As for `CC(C)[C@@H](C(=O)N1CCN(CCO)CC1)n1cc(-c2ccc(S(N)(=O)=O)cc2)nn1` [DHK185], the inhibition at 1 µM is under 40%.

Turning to `NS(=O)(=O)c1nc2ccc(OCc3cn([C@@H](Cc4ccccc4)C(=O)N4CCN(CCO)CC4)nn3)cc2s1` [DHK-2-69], the inhibition at 1 µM was under 40%.

The same experiment, now with this note: Table 2, Libraries 4-7; sample concentrations 100 nM and 1000 nM, DNSA 200 μM; screening at 1 μM.
Regarding `COC(=O)C(C)NC(=O)[C@H](Cc1ccccc1)n1cc(COc2ccc3nc(S(N)(=O)=O)sc3c2)nn1` (stereo partly drawn) [DHK-2-61], the “In Vitro Binding Assay (Library Screening)” value is reported as “√”.
